Test results: ChEMBL document CHEMBL1139687, “Inhibitory effect of carboxylic acid group on hERG binding” (Bioorg Med Chem Lett, 2006)

Biological target: Voltage-gated inwardly rectifying potassium channel KCNH2 (Homo sapiens, UniProt Q12809)
Assay: Displacement of [3H]dofetilide from human ERG potassium channel expressed in HEK293 cells

Voltage-gated inwardly rectifying potassium channel KCNH2, sequence (Q12809 whole entry): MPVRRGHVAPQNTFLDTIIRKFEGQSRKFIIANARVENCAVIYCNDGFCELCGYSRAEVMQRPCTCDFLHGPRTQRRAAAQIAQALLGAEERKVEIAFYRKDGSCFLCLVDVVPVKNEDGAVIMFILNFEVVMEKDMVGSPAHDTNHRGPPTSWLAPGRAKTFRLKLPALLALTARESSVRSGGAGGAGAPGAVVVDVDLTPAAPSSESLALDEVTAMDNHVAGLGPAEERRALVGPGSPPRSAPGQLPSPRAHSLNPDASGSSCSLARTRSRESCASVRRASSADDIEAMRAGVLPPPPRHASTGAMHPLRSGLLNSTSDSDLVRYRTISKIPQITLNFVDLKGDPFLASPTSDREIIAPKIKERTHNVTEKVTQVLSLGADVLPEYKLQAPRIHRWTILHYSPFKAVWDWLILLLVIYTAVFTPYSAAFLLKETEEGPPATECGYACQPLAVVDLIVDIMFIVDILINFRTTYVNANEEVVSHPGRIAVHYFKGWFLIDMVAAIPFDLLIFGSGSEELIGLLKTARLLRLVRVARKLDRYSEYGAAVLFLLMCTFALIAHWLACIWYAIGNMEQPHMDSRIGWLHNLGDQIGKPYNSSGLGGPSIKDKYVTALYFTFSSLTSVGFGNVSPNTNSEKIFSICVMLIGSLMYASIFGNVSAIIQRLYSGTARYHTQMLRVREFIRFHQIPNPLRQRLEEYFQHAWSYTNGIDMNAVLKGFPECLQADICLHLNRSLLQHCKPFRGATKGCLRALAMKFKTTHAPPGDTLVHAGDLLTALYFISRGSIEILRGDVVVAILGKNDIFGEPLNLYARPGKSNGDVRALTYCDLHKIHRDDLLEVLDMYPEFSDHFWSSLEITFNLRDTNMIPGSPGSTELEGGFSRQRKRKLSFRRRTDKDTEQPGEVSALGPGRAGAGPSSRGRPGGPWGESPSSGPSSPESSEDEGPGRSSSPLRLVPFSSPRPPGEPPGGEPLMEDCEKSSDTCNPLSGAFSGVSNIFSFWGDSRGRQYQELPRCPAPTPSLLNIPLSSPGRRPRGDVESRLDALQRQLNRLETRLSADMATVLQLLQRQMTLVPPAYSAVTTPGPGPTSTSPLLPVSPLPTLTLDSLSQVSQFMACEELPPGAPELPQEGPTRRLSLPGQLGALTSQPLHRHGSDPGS

| Structure (SMILES) | Ki |
| --- | --- |
| CCOC(=O)C1CCN(C(=N)c2ccc(C(=O)Nc3ccc(Cl)cc3C(=O)Nc3ccc(Cl)cn3)cc2)CC1 | 17 nM |
| N=C(c1ccc(C(=O)Nc2ccc(Cl)cc2C(=O)Nc2ccc(Cl)cn2)cc1)N1CCCC(C(=O)O)C1 (configuration not stated) | > 10000 nM |
| COC(=O)c1ccc(Oc2ccc(NC(=O)c3ccc(C(=N)N(C)C)cc3)c(C(=O)Nc3ccc(Cl)cn3)c2)cc1 | 570 nM |
| CN(C)C(=N)c1ccc(C(=O)Nc2ccc(Sc3ccc(C(=O)O)cc3)cc2C(=O)Nc2ccc(Cl)cn2)cc1 | 4600 nM |
| CN(C)C(=N)c1ccc(C(=O)Nc2ccc(Cl)cc2C(=O)Nc2ccc(Cl)cn2)c(N2CCCCC2C(=O)O)c1 (configuration not stated) | > 2000 nM |
| CN(C)C(=N)c1ccc(C(=O)Nc2ccc(Oc3ccc(C(=O)O)cc3)cc2C(=O)Nc2ccc(Cl)cn2)cc1 | > 10000 nM |
| Cc1cc(C(=O)Nc2ccc(C(=N)N3CCCC3)cc2)n(-c2cc3ccccc3cc2C(=O)O)n1 | > 10000 nM |
| CN(CC(=O)O)C(=N)c1ccc(C(=O)Nc2ccc(Cl)cc2C(=O)Nc2ccc(Cl)cn2)cc1 | 1400 nM |
| COC(=O)CCc1ccc(NC(=O)c2ccc(C(=N)N(C)C)cc2)c(C(=O)Nc2ccc(Cl)cn2)c1 | 790 nM |
| CN(CCCC(=O)O)C(=N)c1ccc(C(=O)Nc2ccc(Cl)cc2C(=O)Nc2ccc(Cl)cn2)cc1 | 1400 nM |
| CCOC(=O)C1CCN(C(=N)c2ccc(C(=O)Nc3c(OC)cc(Cl)cc3C(=O)Nc3ccc(Cl)cn3)c(F)c2)CC1 | 51 nM |
| CN(C)C(=N)c1ccc(C(=O)Nc2ccc(Sc3ccc(C(=O)N(C)C)cc3)cc2C(=O)Nc2ccc(Cl)cn2)cc1 | 370 nM |
| COc1cc(Cl)cc(C(=O)Nc2ccc(Cl)cn2)c1NC(=O)c1ccc(C(=N)N2CCC(C(=O)O)CC2)cc1F | > 10000 nM |
| CN(C)C(=N)c1ccc(C(=O)Nc2ccc(Cl)cc2C(=O)Nc2ccc(Cl)cn2)cc1 | 100 nM |
| CN(C)C(=N)c1ccc(C(=O)Nc2ccc(Cl)cc2C(=O)Nc2ccc(Cl)cn2)c(N2CCC(C(=O)O)CC2)c1 | > 10000 nM |
| C/C(=C(\F)C(=O)N(CC(=O)O)c1ccc(-c2ccccc2S(N)(=O)=O)cc1)c1cccc(C(=N)N)c1 | > 10000 nM |
| CN(C)C(=N)c1ccc(CN2C(=O)CN(S(=O)(=O)c3cc4cc(Cl)ccc4[nH]3)C[C@@H]2C(=O)O)cc1 | > 10000 nM |
| CN(C)C(=N)c1ccc(C(=O)Nc2ccc(Cl)cc2C(=O)Nc2ccc(Cl)cn2)c(N(C)CCCC(=O)O)c1 | > 6600 nM |
| Cc1cc(C(=O)Nc2ccc(-c3ccccc3CN3CCCCC3)cc2F)n(-c2cc3ccccc3cc2F)n1 | 1000 nM |
| CN1CCN=C1c1ccc(C(=O)N2CCN(S(=O)(=O)c3cc4ccc(Cl)cc4s3)CC2CC(=O)N2CCCC(C(=O)O)C2)cc1 (configuration not stated) | > 10000 nM |
| CN1CCN=C1c1ccc(C(=O)N2CCN(S(=O)(=O)c3cc4ccc(Cl)cc4s3)CC2CC(=O)N2CCOCC2)cc1 (configuration not stated) | 600 nM |
| CC(=N)N1CCC(Oc2ccc(N(Cc3ccc4ccc(C(=N)N)cc4c3)S(=O)(=O)CC(=O)O)cc2)CC1 [YM-60828] | > 10000 nM |
